The record followed here is paper doi:10.1101/2023.03.24.534094v2 (biorxiv, 2023).

Some targets named below: p38a (Homo sapiens, UniProt Q16539); MSK1b (Homo sapiens, UniProt O75582); DYRK1A (Homo sapiens, UniProt Q13627); CDK2 (Homo sapiens, UniProt P24941); STLK3 (Homo sapiens, UniProt Q9UEW8); CK2a1 (Homo sapiens, UniProt P68400); Erk2 (Homo sapiens, UniProt P28482); CaMK1g (Homo sapiens, UniProt Q96NX5); MAPKAPK2 (Homo sapiens, UniProt P49137).
Holding throughout (test): biochemical
For another assay, the target named is T1, CaMK4 (Homo sapiens, UniProt Q16566).
T1 sequence (Q16566 1-473): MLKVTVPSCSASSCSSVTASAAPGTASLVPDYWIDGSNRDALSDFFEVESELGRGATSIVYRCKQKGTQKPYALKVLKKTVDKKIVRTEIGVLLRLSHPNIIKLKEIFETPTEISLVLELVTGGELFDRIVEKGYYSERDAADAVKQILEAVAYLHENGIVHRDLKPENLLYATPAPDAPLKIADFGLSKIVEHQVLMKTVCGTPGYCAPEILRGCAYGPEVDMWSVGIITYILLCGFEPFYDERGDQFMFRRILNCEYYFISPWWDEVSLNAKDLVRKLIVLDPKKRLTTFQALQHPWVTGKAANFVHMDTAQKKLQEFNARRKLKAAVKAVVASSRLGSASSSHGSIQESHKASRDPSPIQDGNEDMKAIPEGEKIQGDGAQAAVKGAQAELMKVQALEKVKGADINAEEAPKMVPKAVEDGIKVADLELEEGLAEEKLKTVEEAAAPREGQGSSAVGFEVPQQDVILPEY

A further assay addresses T2, EphB1 (Homo sapiens, UniProt P54762).
T2 sequence (P54762 1-984): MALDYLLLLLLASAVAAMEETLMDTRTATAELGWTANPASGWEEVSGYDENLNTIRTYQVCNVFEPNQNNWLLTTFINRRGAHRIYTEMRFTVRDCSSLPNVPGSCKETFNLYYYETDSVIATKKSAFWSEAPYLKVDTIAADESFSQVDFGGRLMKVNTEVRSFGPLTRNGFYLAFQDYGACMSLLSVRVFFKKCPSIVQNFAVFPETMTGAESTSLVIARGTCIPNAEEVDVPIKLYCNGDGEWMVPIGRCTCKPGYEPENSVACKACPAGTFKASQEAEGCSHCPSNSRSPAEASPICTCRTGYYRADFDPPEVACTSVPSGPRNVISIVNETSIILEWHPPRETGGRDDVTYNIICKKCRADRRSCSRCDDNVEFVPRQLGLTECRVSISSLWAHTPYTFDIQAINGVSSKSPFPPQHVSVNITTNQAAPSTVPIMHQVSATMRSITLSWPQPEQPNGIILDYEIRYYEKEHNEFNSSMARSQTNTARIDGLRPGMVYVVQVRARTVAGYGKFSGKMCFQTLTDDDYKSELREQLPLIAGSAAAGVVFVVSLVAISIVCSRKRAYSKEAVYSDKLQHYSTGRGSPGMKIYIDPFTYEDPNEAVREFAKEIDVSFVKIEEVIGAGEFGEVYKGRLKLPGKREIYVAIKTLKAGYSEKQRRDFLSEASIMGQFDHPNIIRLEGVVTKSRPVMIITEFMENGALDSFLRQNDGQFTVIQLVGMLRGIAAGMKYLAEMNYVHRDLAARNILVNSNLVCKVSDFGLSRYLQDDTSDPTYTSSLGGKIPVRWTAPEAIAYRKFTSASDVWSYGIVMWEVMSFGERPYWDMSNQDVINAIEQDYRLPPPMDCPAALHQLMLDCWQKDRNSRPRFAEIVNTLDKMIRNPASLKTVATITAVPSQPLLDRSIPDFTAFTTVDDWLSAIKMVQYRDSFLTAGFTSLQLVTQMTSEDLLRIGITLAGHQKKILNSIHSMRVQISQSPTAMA

Another assay deals with T3, AurA (Homo sapiens, UniProt O14965).
T3 sequence (O14965 1-403): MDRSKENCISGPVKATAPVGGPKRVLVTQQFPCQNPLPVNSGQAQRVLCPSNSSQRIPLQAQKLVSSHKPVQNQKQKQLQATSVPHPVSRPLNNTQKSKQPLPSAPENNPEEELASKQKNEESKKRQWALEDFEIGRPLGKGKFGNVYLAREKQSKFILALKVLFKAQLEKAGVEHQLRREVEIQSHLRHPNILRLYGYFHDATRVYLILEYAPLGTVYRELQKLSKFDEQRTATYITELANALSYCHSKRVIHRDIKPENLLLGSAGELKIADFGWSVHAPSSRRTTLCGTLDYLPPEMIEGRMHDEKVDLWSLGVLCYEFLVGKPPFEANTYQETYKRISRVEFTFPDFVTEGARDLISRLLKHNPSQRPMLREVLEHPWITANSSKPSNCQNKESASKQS

Like-named read-outs stand apart in the source and are kept apart here.

Sequence of p38a (Q16539 whole entry): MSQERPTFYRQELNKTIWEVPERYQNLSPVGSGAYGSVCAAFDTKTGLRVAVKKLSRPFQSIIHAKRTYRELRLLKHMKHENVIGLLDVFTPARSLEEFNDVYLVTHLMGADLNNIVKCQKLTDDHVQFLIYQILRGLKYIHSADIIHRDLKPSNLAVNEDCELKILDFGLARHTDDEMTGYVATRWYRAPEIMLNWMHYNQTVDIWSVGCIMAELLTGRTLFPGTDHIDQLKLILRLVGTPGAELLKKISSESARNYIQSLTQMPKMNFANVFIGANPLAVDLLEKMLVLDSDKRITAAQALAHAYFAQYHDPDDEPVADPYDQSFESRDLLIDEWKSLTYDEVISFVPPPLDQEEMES
Sequence of CaMK1g (Q96NX5 whole entry): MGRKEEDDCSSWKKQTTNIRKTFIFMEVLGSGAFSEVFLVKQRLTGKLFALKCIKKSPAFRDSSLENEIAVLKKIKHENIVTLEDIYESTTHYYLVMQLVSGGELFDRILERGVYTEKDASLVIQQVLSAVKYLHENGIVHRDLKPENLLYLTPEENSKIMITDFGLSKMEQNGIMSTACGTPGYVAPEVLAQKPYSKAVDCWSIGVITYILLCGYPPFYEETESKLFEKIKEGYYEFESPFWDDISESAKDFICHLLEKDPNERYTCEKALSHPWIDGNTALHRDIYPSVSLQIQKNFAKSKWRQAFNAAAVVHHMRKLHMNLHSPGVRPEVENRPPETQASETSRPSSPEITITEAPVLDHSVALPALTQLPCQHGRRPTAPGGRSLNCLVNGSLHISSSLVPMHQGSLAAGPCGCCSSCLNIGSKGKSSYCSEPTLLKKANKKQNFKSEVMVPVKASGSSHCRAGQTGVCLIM
Sequence of CK2a1 (P68400 whole entry): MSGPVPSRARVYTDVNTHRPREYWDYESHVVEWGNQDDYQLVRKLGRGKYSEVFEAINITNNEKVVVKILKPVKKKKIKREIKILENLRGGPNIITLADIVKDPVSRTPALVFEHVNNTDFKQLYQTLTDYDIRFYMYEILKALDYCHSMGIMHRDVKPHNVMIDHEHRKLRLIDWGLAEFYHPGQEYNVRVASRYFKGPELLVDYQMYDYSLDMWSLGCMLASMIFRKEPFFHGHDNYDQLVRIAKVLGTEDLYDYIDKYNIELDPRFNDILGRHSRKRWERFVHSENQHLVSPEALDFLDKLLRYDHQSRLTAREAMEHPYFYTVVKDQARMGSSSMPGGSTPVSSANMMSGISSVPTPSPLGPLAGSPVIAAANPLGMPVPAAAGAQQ
Sequence of MSK1b (O75582 whole entry): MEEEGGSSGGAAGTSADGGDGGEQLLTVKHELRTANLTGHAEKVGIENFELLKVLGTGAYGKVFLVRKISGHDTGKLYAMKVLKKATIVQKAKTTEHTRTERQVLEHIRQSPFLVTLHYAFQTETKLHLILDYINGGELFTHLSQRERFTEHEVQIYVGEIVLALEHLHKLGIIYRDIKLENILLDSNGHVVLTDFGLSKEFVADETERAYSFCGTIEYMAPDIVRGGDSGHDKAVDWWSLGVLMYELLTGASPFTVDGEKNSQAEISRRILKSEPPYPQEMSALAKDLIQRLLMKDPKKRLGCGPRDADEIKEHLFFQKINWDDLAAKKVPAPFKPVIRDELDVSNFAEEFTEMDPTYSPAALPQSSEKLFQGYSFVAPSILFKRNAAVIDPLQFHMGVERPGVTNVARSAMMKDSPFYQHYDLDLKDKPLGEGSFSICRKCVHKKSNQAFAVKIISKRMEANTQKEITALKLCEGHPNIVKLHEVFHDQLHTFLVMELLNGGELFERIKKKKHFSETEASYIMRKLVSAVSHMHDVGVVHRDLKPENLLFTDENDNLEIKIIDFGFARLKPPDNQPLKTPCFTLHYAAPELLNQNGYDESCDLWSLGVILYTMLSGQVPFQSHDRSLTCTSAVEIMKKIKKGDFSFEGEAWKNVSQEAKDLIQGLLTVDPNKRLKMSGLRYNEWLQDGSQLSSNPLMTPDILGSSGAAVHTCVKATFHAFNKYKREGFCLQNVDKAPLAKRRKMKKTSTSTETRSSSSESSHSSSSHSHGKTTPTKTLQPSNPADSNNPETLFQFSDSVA
Sequence of MAPKAPK2 (P49137 whole entry): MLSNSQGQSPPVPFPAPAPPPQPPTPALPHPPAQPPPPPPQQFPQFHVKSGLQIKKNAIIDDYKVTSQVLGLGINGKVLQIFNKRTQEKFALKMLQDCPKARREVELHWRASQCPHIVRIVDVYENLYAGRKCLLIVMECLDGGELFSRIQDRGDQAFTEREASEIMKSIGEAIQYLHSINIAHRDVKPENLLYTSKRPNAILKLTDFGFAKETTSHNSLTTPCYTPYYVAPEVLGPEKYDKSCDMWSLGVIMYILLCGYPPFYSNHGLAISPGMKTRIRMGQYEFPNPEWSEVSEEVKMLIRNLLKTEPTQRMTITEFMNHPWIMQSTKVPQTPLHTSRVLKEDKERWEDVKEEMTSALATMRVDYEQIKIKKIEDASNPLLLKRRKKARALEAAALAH
Sequence of Erk2 (P28482 whole entry): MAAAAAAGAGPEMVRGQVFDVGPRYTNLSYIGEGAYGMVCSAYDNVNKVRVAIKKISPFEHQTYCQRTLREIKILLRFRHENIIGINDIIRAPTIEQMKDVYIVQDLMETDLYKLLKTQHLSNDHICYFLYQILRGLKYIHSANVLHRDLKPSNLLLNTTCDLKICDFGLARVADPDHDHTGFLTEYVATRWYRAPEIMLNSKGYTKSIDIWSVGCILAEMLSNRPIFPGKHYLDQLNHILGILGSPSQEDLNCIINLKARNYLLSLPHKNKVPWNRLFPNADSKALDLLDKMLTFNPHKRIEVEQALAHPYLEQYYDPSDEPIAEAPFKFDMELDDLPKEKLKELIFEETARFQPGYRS

As to `CNc1ncc2cc(-c3ccccc3Cl)c(=O)n(CCCCN)c2n1` [compound 4, 8-(4-Aminobutyl)-6-(2-chlorophenyl)-2-(methylamino)pyrido[2,3-d]pyrimidin-7(8H)-one], the ΔTm at 10 µM at CaMK4 (read-out: dTm MR21 (4)) was 0.8 °C; on p38a (read-out: dTm MR21 (4)) it was 8.8 °C; at MSK1b (read-out: dTm MR21 (4)) it was 2.1 °C; on DYRK1A (read-out: dTm MR21 (4)), 1.4 °C; at CDK2 (read-out: dTm MR21 (4)) it was 0.4 °C; on STLK3 (read-out: dTm MR21 (4)) it was -1.1 °C. For the same molecule, the ΔTm at 10 µM on CK2a1 (read-out: dTm MR21 (4)) is -0.4 °C; on Erk2 (read-out: dTm MR21 (4)), 1 °C; at CaMK1g (read-out: dTm MR21 (4)) it was -0.1 °C; on MAPKAPK2 (read-out: dTm MR21 (4)), 0.1 °C; on EphB1 (read-out: dTm MR21 (4)) it was 3.6 °C.
With `CNc1ncc2cc(-c3cc(Br)ccc3Cl)c(=O)n(CCCCN)c2n1` [compound 6, 8-(4-Aminobutyl)-6-(5-bromo-2-chlorophenyl)-2-(methylamino)pyrido[2,3-d]pyrimidin-7(8H)-one], the ΔTm at 10 µM was -0.1 °C on CaMK4 (read-out: dTm 6); 5.6 °C on p38a (read-out: dTm 6); 0.3 °C on MSK1b (read-out: dTm 6); 0 °C at DYRK1A (read-out: dTm 6); 0.5 °C on CDK2 (read-out: dTm 6); 0.2 °C on STLK3 (read-out: dTm 6). Moreover, the ΔTm at 10 µM on CK2a1 (read-out: dTm 6) was 0.2 °C; at AurA (read-out: dTm 6), 1.9 °C; at Erk2 (read-out: dTm 6), 0 °C; at CaMK1g (read-out: dTm 6), 1.2 °C; on MAPKAPK2 (read-out: dTm 6) it was -0.7 °C; on EphB1 (read-out: dTm 6), 4.7 °C.
Consider `CNc1ncc2cc(-c3ccc(-c4cccc(C)n4)cc3Cl)c(=O)n(CC3OCC(N)CO3)c2n1` (stereo not shown) [compound 2, G-5555], for which the “dTm G-5555 (2)” value on CaMK4 (10 µM, binder) is 0.7 °C; at p38a (10 µM, binder), 1.4 °C; on MSK1b (10 µM, binder), 2.0 °C; on DYRK1A (10 µM, binder), -1.0 °C; at CDK2 (10 µM, binder), 0.5 °C; at STLK3 (10 µM, binder) it was 0.6 °C. Further, the “dTm G-5555 (2)” value was 0.1 °C at CK2a1 (10 µM, binder); 8.5 °C at AurA (10 µM, binder); 1.4 °C at Erk2 (10 µM, binder); 2.3 °C at CaMK1g (10 µM, binder); -0.3 °C on MAPKAPK2 (10 µM, binder).
Turning to `CNc1ncc2cc(-c3cc(F)ccc3F)c(=O)n(CCCCN)c2n1` [compound 5, 8-(4-Aminobutyl)-6-(2,5-difluorophenyl)-2-(methylamino)pyrido[2,3-d]pyrimidin-7(8H)-one], the ΔTm at 10 µM at CaMK4 (read-out: dTm MR22 (5)) was -0.6 °C; on p38a (read-out: dTm MR22 (5)), -0.6 °C; on MSK1b (read-out: dTm MR22 (5)), 1.5 °C; on DYRK1A (read-out: dTm MR22 (5)), 0 °C; on CDK2 (read-out: dTm MR22 (5)), 0.7 °C; on STLK3 (read-out: dTm MR22 (5)) it was 2.1 °C. The ΔTm at 10 µM is 0.4 °C at CK2a1 (read-out: dTm MR22 (5)); -3 °C on AurA (read-out: dTm MR22 (5)); -3.7 °C at Erk2 (read-out: dTm MR22 (5)); -0.4 °C at CaMK1g (read-out: dTm MR22 (5)); -0.1 °C on MAPKAPK2 (read-out: dTm MR22 (5)); 4.5 °C on EphB1 (read-out: dTm MR22 (5)).
As to `CNc1ncc2cc(-c3cc(Br)ccc3Cl)c(=O)n(C[C@H]3OC[C@H](N)CO3)c2n1` [compound 7, 8-(((2r,5r)-5-Amino-1,3-dioxan-2-yl)methyl)-6-(5-bromo-2-chlorophenyl)-2-(methylamino)pyrido[2,3-d]pyrimidin-7(8H)-one], the ΔTm at 10 µM at CaMK4 (read-out: dTm 7) is 0.1 °C; at p38a (read-out: dTm 7), 5.3 °C; on MSK1b (read-out: dTm 7), 1.1 °C; at DYRK1A (read-out: dTm 7), -0.6 °C; at CDK2 (read-out: dTm 7) it was 0.3 °C; on STLK3 (read-out: dTm 7) it was 0 °C. The ΔTm at 10 µM at CK2a1 (read-out: dTm 7) amounted to 0.4 °C; at AurA (read-out: dTm 7), 1.4 °C; at Erk2 (read-out: dTm 7), 0 °C; on CaMK1g (read-out: dTm 7) it was 0.3 °C; at MAPKAPK2 (read-out: dTm 7), 0 °C; at EphB1 (read-out: dTm 7), 3.1 °C.
